Where two headings read alike, the source gives them in different places.
What was measured:
PRC2 containing wt EZH2 = target: T1, PRC2 containing wt EZH2 (Homo sapiens, UniProt Q15910); test: EZH2 pep BSA Brij 4.0 LowE (IC50): 3H-SAM incorporation into biotinylated H3 peptide; type: biochemical
T1 construct: made in house
Method: EZH2 Pep BSA Brij 4.0 LowE (IC50):
Compound potencies were assessed through incorporation of ^3H-SAM into a biotinylated H3 peptide. Specifically, PRC2 containing wt EZH2 (20 pM), (pentameric complexes prepared in-house) was pre-incubated with ^3H-SAM (0.9 μM), 2 μM H3K27me3 activating peptide (H2N-RKQLATKAAR(Kme3)SAPATGGVKKP-amide) and compounds (as 10 point duplicate dose response titrations in DMSO, final assay 0.8% DMSO (v/v)) for 120 min in 50 mM Tris (pH 8.5), 1 mM DTT, 0.07 mM Brij-35, 0.1% BSA, and 0.8% DMSO in a total volume of 12.5 μl. Reaction was initiated with biotinylated H3 substrate peptide (H2N-RKQLATKAAR(Kme1)SAPATGGVKKP-NTPEGBiot) as a 2 μM stock in 12.5 μl of buffer and allowed to react at room temperature for 5 h. Quenching was accomplished by addition of 20 μl of STOP solution (50 mM Tris (pH 8.5), 200 mM EDTA, 2 mM SAH). 35 μl of the quenched solution was transferred to Streptavidin Flashplates, incubated overnight, washed, and read in a TopCount Reader (Perkin Elmer). IC50s were calculated relative to fully active and no enzyme control wells using non-linear least square four parameter fits.

H3K27me3 mark = test: H3K27me3 Alpha Hela Assay (AlphaLISA); type: cell-based; settings: Hela cells, read-out: EZH2 Cell H3K27me3 Alpha HeLa (EC50 K27me3)
Method: EC50 Measurements for Inhibitors in HeLa Cell Assays
H3K27me3 Alpha Hela Assay (AlphaLISA). Ten different doses of each test compound (in a series of 3-fold dilutions) were plated in duplicate 384-well tissue culture treated plates (Catalog #781080; Greiner Bio One; Monroe, N.C.). Hela cells grown in culture were trypsinized and counted using a Countess® cell counter (Catalog # C10281; Life Technologies, Grand Island, N.Y.). Cell were diluted to 67,000 cells per mL in 10% DMEM (Catalog #10569-010 Life Technologies, Grand Island, N.Y.) and 15 μL (1,000 cells) were plated into each well using the Biotek MicroFlo™ Select Dispenser (BioTek Instruments, Inc. Vermont, USA),) of the 384-well plate. Plates were incubated at 37° C./5% CO2 for 72 hrs. One of the duplicate plates was processed for HeLa assay and the other for viability.
To the plate processed for AlphaLISA was added 5 μL per well Cell-Histone Lysis buffer (1×) (Catalog # AL009F1 Perkin Elmer; Waltham, Mass.) and the plate was incubated at RT for 30 minutes on a plate shaker with low speed (Model#4625-Q Thermo Scientific; Waltham, Mass.). Then, 10 μL per well Histone Extraction buffer (catalog # AL009F2; Perkin Elmer; Waltham, Mass.) was added and the plate further incubated at RT for 20 min on plate shaker with low speed. To each well was then added 10 μL per well of a 5× mix of anti-K27me3 acceptor beads plus Biotinylated anti-Histone H3 (C-ter) Antibody (diluted to 3 nM final) (Catalog #AL118 Perkin Elmer; Waltham, Mass.). Dilution of the acceptor beads and then anti-Histone H3 was with 1× Histone Detection buffer (Catalog # AL009F3 Perkin Elmer; Waltham, Mass.) which was produced diluted from the 10× stock provided. The plate was sealed with an aluminum plate sealer and incubated at 23° C. for 60 min. We then added 10 μL 5× solution of Streptavidin Donor beads (Catalog #6760002 Perkin Elmer; Waltham, Mass.) (20 μg/mL final in 1× Histone Detection Buffer), sealed the plate with Aluminum plate sealer and incubated at 23° C. for 30 min. The plates were then read using an EnVision-Alpha Reader (model #2104 Perkin Elmer; Waltham, Mass.).
Data from both assays was analyzed using Assay Assistant (Constellation Pharmaceuticals In-house product) and Activity Base (IDBS Ltd, Surrey, UK) template. Data files were imported to Assay Assistant and assay conditions were specified. A unique Analysis ID was created and the data files exported to Activity Base. An analysis template was created on Activity Base to measure dose-dependent inhibition of H3K27me3 mark and cell viability respectively. Readout of DMSO wells were used to normalize the data. Resulting curves were fitted using Activity base software Model 205 (IDBS Ltd, Surrey, UK). The data was checked for quality, validated and integrated in excel format using SARview (IDBS Ltd, Surrey, UK).

[1] = EZH2 pep BSA Brij 4.0 LowE (IC50), 20 pM PRC2 wt EZH2, 0.9 μM 3H-SAM, biotinylated H3 peptide substrate, 2 μM H3K27me3 activating peptide
[2] = 20 pM PRC2 wt EZH2, 0.9 μM 3H-SAM, biotinylated H3 peptide substrate, 2 μM H3K27me3 activating peptide; read-out: EZH2 pep BSA Brij 4.0 LowE (IC50)
[3] = read-out: EZH2 pep BSA Brij 4.0 LowE (IC50); 20 pM PRC2 wt EZH2, 0.9 μM 3H-SAM, biotinylated H3 peptide substrate, 2 μM H3K27me3 activating peptide

T1 sequence (Q15910 whole entry): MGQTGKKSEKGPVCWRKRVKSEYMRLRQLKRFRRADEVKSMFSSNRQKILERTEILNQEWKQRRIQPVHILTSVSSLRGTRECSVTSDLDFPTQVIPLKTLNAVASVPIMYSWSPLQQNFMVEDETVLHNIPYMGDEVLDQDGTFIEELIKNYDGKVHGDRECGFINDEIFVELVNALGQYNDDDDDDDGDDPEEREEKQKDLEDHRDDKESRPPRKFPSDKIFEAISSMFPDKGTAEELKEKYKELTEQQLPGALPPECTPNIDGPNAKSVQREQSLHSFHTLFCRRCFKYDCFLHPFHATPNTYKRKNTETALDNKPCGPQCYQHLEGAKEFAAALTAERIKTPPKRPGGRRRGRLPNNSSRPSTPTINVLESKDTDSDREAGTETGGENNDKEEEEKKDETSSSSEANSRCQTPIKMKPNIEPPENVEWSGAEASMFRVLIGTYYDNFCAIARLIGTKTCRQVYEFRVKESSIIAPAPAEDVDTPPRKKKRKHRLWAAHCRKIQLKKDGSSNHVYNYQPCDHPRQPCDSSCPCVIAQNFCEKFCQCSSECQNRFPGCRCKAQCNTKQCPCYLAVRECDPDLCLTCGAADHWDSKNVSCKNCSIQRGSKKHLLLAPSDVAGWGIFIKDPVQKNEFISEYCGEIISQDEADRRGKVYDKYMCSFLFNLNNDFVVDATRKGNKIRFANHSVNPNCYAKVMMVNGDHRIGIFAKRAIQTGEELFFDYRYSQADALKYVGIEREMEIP
T1 sequence (O75530 whole entry partner): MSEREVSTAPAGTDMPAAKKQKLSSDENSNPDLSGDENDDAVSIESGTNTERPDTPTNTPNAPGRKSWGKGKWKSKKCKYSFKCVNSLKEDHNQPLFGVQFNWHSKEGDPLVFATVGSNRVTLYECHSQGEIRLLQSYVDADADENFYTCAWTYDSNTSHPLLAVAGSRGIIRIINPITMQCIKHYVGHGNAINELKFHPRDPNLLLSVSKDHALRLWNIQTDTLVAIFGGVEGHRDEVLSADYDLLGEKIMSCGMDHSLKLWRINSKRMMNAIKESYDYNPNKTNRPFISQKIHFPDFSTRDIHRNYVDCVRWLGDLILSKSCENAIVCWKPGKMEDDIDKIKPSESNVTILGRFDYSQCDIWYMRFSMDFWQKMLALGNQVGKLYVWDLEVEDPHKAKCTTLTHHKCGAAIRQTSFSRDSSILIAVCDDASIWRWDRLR
T1 sequence (Q15022 whole entry partner): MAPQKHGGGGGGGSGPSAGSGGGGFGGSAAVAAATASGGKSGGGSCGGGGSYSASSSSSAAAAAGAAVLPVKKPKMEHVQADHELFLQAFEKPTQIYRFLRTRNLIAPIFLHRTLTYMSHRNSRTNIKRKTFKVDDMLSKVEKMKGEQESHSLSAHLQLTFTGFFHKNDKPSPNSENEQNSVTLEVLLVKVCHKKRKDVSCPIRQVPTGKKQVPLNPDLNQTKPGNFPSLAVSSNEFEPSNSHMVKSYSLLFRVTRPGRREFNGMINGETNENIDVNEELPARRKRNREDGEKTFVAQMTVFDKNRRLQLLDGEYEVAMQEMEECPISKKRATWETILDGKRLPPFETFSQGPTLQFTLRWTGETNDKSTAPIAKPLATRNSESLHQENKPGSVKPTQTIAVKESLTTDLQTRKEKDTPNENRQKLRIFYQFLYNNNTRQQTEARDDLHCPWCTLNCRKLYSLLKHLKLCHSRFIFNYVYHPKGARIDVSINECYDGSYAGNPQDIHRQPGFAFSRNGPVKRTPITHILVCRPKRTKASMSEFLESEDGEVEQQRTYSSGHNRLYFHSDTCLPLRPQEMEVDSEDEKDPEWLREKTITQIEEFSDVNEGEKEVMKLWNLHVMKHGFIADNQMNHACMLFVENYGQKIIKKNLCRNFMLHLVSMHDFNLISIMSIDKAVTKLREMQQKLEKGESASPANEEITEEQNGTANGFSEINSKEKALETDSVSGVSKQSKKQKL
T1 sequence (Q09028 whole entry partner): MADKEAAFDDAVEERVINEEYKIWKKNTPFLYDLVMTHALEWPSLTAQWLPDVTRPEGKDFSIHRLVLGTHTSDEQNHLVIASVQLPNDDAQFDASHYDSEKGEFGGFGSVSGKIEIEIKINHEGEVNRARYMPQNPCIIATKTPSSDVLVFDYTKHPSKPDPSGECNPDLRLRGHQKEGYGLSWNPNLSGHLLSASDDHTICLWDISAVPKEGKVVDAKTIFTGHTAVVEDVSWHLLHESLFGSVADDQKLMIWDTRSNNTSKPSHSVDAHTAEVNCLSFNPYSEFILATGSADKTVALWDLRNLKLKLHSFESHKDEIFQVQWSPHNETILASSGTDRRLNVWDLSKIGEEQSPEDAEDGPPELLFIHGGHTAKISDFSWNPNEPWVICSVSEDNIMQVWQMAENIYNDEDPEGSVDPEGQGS
T1 sequence (Q6ZN18 whole entry partner): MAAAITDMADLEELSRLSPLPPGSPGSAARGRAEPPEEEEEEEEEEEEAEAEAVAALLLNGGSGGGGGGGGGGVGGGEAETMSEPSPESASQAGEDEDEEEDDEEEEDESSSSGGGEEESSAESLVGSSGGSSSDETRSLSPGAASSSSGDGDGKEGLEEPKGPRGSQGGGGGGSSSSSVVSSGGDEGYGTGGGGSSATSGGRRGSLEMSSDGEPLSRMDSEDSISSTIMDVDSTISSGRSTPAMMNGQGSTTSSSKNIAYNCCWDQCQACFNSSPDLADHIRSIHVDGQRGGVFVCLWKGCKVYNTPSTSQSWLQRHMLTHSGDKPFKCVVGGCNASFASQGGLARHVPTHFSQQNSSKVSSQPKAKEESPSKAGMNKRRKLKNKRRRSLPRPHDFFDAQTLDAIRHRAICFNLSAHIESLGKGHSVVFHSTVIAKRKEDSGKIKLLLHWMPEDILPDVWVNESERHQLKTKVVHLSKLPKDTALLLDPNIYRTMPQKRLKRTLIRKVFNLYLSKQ

Row | Compound | IC50 (PRC2 containing wt EZH2; [1]) [nM] | EC50 (H3K27me3 mark; Homo sapiens, HeLa, 72 h) [nM] | EC50 (H3K27me3 mark; 72 hrs) [nM] | IC50 (PRC2 containing wt EZH2; [2]) [nM] | IC50 (PRC2 containing wt EZH2; [3]) [nM]
1 | COc1cc(C)[nH]c(=O)c1CNC(=O)c1c(C)n(C(C)C2CCN(C)CC2C(F)(F)F)c2ccccc12 (single isomer, unassigned) [Compound 27, N-((4-methoxy-6-methyl-2-oxo-1,2-dihydropyridin-3-yl)methyl)-2-methyl-1-(1-(1-methyl-3-(trifluoromethyl)piperidin-4-yl)ethyl)-1H-indole-3-carboxamide] | 100 to 1000 | > 2000 |  |  | 
2 | COc1cc(C)[nH]c(=O)c1CNC(=O)c1c(C)n(C(C)C2CCN(C)CC2C(F)(F)F)c2ccccc12 (single isomer, unassigned) [Compound 28, N-((4-methoxy-6-methyl-2-oxo-1,2-dihydropyridin-3-yl)methyl)-2-methyl-1-(1-(1-methyl-3-(trifluoromethyl)piperidin-4-yl)ethyl)-1H-indole-3-carboxamide] | < 100 |  | > 2000 |  | 
3 | COc1cc(C)[nH]c(=O)c1CNC(=O)c1c(C)n(C(C)C2CCN(C)C(c3ccc(F)cc3)C2)c2ccccc12 (single isomer, unassigned) [Compound 34, 1-(1-(2-(4-fluorophenyl)-1-methylpiperidin-4-yl)ethyl)-N-((4-methoxy-6-methyl-2-oxo-1,2-dihydropyridin-3-yl)methyl)-2-methyl-1H-indole-3-carboxamide] |  |  | > 2000 | 100 to 1000 | 
4 | COc1cc(C)[nH]c(=O)c1CNC(=O)c1c(C)n(C(C)C2CCN(C)C(c3ccc(F)cc3)C2)c2ccccc12 (single isomer, unassigned) [Compound 35, 1-(1-(2-(4-fluorophenyl)-1-methylpiperidin-4-yl)ethyl)-N-((4-methoxy-6-methyl-2-oxo-1,2-dihydropyridin-3-yl)methyl)-2-methyl-1H-indole-3-carboxamide] |  |  | < 400 | < 100 | 
5 | CCc1cc(C)[nH]c(=O)c1CNC(=O)c1c(C)n(C(C)C2CCNC(C(F)(F)F)C2)c2ccccc12 (stereo not shown) [Compound 5, N-((4-ethyl-6-methyl-2-oxo-1,2-dihydropyridin-3-yl)methyl)-2-methyl-1-(1-(2-(trifluoromethyl)piperidin-4-yl)ethyl)-1H-indole-3-carboxamide] | < 100 | < 400 |  |  | 
6 | CCCc1cc(C)[nH]c(=O)c1CNC(=O)c1c(C)n(C(C)C2CCNC(C(F)(F)F)C2)c2ccccc12 (stereo not shown) [Compound 6, 2-methyl-N-((6-methyl-2-oxo-4-propyl-1,2-dihydropyridin-3-yl)methyl)-1-(1-(2-(trifluoromethyl)piperidin-4-yl)ethyl)-1H-indole-3-carboxamide] | < 100 | < 400 |  |  | 
7 | Cc1cc(OC(F)F)c(CNC(=O)c2c(C)n(C(C)C3CCNC(C(F)(F)F)C3)c3ccccc23)c(=O)[nH]1 (stereo not shown) [Compound 7, N-((4-(difluoromethoxy)-6-methyl-2-oxo-1,2-dihydropyridin-3-yl)methyl)-2-methyl-1-(1-(2-(trifluoromethyl)piperidin-4-yl)ethyl)-1H-indole-3-carboxamide] | < 100 | < 400 |  |  | 
8 | COc1cc(C)[nH]c(=O)c1CNC(=O)c1c(C)n(C(C)C2CCN(C)C(CF)C2)c2ccccc12 (stereo not shown) [Compound 29, 1-(1-(2-(fluoromethyl)-1-methylpiperidin-4-yl)ethyl)-N-((4-methoxy-6-methyl-2-oxo-1,2-dihydropyridin-3-yl)methyl)-2-methyl-1H-indole-3-carboxamide] | < 100 | > 2000 |  |  | 
9 | COc1cc(C)[nH]c(=O)c1CNC(=O)c1c(C)n(C(C)C2CCN(C)C(CO)C2)c2ccccc12 (stereo not shown) [Compound 30, 1-(1-(2-(hydroxymethyl)-1-methylpiperidin-4-yl)ethyl)-N-((4-methoxy-6-methyl-2-oxo-1,2-dihydropyridin-3-yl)methyl)-2-methyl-1H-indole-3-carboxamide] | < 100 | > 2000 |  |  | 
10 | COc1cc(C)[nH]c(=O)c1CNC(=O)c1c(C)n(C(C)C2CCN(CC(F)F)C(C)C2)c2ccccc12 (stereo not shown) [Compound 44] | < 100 |  | > 2000 |  | 
11 | COc1cc(C)[nH]c(=O)c1CNC(=O)c1c(C)n(C(C)C2CCN(CC(F)(F)F)C(C)C2)c2ccccc12 (stereo not shown) [Compound 45] | < 100 |  | < 400 |  | 
12 | COc1cc(C)[nH]c(=O)c1CNC(=O)c1c(C)n(C(C)C2CCN(CC(F)F)C(C)C2)c2ccccc12 (stereo not shown) [Compound 46] |  |  | < 400 |  | < 100
13 | COc1cc(C)[nH]c(=O)c1CNC(=O)c1c(C)n(C(C)C2CCN(CC(F)(F)F)C(C)C2)c2ccccc12 (stereo not shown) [Compound 47] | 100 to 1000 |  | > 2000 |  | 
14 | COc1cc(C)[nH]c(=O)c1CNC(=O)c1c(C)n(C(C)C2CCNC(c3ccccc3F)C2)c2ccccc12 (stereo not shown) [Compound 66] |  | 400 to 2000 |  |  | < 100
15 | CCC1CC(C(C)n2c(C)c(C(=O)NCc3c(C)cc(C)[nH]c3=O)c3ccccc32)CCN1CC(F)F (stereo not shown) [Compound 68] |  |  | > 2000 |  | < 100
16 | CCC1CC(C(C)n2c(C)c(C(=O)NCc3c(C)cc(C)[nH]c3=O)c3ccccc32)CCN1CC(F)F (stereo not shown) [Compound 69] |  |  | > 2000 |  | < 100
17 | COc1cc(C)[nH]c(=O)c1CNC(=O)c1c(C)n(C(C)C2CCN(CC(C)(F)F)C(C)C2)c2ccccc12 (stereo not shown) [Compound 70] | < 100 |  | 400 to 2000 |  | 
18 | CCC1CC(C(C)n2c(C)c(C(=O)NCc3c(C)cc(C)[nH]c3=O)c3ccccc32)CCN1CC(F)F (stereo not shown) [Compound 71] |  |  | < 400 |  | < 100
19 | COc1cc(C)[nH]c(=O)c1CNC(=O)c1c(C)n(C(C)C2CCN(CC(C)(F)F)C(C)C2)c2ccccc12 (stereo not shown) [Compound 72] | 100 to 1000 |  | > 2000 |  | 
20 | COc1cc(C)[nH]c(=O)c1CNC(=O)c1c(C)n(C(C)C2CCN(CC(C)(F)F)C(C)C2)c2ccccc12 (stereo not shown) [Compound 73] | < 100 |  | < 400 |  | 
21 | Cc1cc(C)c(CNC(=O)c2c(C)n(C(C)C3CCNC(CC(F)(F)F)C3)c3ccccc23)c(=O)[nH]1 (stereo not shown) [Compound 84] |  | 400 to 2000 |  |  | < 100
22 | COc1cc(C)[nH]c(=O)c1CNC(=O)c1c(C)n(C(C)C2CCNC(CC(F)(F)F)C2)c2ccccc12 (stereo not shown) [Compound 88] | < 100 |  | > 2000 |  | 
23 | COc1cc(C)[nH]c(=O)c1CNC(=O)c1c(C)n(C(C)C2CCNC(CC(F)(F)F)C2)c2ccccc12 (stereo not shown) [Compound 89] | < 100 |  | 400 to 2000 |  | 
24 | COc1cc(C)[nH]c(=O)c1CNC(=O)c1c(C)n(C(C)C2CCNC(CC(F)(F)F)C2)c2ccccc12 (stereo not shown) [Compound 90] | < 100 |  | 400 to 2000 |  | 
25 | CCS(=O)(=O)N1CCC(C(C)n2c(C)c(C(=O)NCc3c(OC)cc(C)[nH]c3=O)c3ccccc32)CC1C (stereo not shown) [Compound 91] | < 100 | > 2000 |  |  | 
26 | COc1cc(C)[nH]c(=O)c1CNC(=O)c1c(C)n(C(C)C2CCN(C)C(c3cccc(C(=O)O)c3)C2)c2ccccc12 (stereo not shown) [Compound 92] |  |  | 400 to 2000 |  | < 100

Reference: patent US20180037568A1, “MODULATORS OF METHYL MODIFYING ENZYMES, COMPOSITIONS AND USES THEREOF” (Constellation Pharmaceuticals, Inc., priority 2015, published 2018)
